Consider 24 compounds from patent US11111237B2, “Bicyclic compound and use thereof” (SK BIOPHARMACEUTICALS CO., LTD., priority 2019, dated 2021).

Each structure is given as a SMILES string.

Sequence of PRMT5-MEP50 enzyme complex (O14744 2-637): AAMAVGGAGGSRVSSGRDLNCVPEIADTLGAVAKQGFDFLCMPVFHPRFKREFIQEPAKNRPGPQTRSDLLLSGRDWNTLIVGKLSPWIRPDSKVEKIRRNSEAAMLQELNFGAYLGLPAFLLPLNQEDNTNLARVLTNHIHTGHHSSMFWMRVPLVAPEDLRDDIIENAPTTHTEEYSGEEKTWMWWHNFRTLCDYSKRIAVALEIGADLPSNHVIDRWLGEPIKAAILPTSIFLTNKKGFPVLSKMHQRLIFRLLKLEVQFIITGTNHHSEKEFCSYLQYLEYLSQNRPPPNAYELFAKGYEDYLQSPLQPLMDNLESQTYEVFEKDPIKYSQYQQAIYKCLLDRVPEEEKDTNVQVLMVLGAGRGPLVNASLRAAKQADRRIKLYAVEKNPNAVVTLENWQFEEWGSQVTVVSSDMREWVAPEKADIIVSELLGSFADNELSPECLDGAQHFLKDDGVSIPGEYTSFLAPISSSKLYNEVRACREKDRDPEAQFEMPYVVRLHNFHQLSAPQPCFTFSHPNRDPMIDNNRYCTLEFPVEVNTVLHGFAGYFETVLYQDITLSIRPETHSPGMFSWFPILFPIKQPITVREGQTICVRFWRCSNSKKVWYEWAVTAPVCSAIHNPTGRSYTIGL
Sequence of PRMT5-MEP50 enzyme complex (Q9BQA1 2-342 partner): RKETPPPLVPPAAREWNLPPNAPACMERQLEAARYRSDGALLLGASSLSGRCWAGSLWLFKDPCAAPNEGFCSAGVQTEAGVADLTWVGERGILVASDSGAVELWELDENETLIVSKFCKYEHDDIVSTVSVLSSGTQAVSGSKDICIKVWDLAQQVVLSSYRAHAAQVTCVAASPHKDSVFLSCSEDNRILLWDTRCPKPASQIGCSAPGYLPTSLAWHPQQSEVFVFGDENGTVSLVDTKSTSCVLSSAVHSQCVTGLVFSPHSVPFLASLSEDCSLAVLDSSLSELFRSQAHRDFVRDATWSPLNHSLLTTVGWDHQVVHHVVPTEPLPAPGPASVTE

The assay concerns the target PRMT5-MEP50 enzyme complex (Homo sapiens (Human), UniProt O14744). Kind of assay: PRMT5 enzyme activity in vitro assay (methylation of histone H4R3, ELISA absorbance at 450 nm). The format is biochemical. The note with it: SAM, histone H4 peptide, room temperature 2 hours, 8 points from 10 μM to 0.128 nM. The method, then: Method for Measuring Enzyme Activity
In vitro assay: PRMT5-MEP50 enzyme complex, cofactor S-adenosylmethionine (SAM) and histone H4 peptide were reacted in vitro, and methylation of arginine (H4R3)—which is the third amino acid of histone H4—was measured in order to measure the enzyme activity of PRMT5.
Reagents: PRMT5-MEP50 enzyme complex (Catalog No. 51045), blocking buffer (52100-B), histone methyltransferase reaction buffer 2 (4×HMT assay buffer 2, Catalog No. 52170), and primary antibody (primary antibody 4-3, Catalog No. 52150) were purchased from BPS Bioscience (USA). The histone H4 peptide (1-20 amino acids) was custom made by Komabiotech (Korea) and used. S-adenosylmethionine was purchased from NEB (New England Biolabs, USA, Catalog No. B9003S). Plates for coating histone H4 peptide, washing buffer and color development reagent were purchased from the following vendors: Plate (Immobilizer™-Amino Plate, NUNC, Denmark, Catalog No. 436023), carbonate-bicarbonate buffer (Sigma-Aldrich, USA, Catalog No. C3041), washing buffer (10×TBST, Biosesang, Korea, Catalog No. T2005), TMB ELISA substrate (Abcam, UK, Catalog No. ab210902), horseradish peroxidase (HRP)-conjugated antibody (Abcam, UK, Catalog No. ab6721).
Experimental procedure: The histone H4 peptide was diluted with carbonate-bicarbonate buffer and prepared to 100 μg/mL, and then dispensed onto the plate per 100 μL and reacted at 37° C. for 1 hour. PRMT5-MEP50 enzyme complex and S-adenosylmethionine were diluted with histone methyltransferase reaction buffer to prepare 5 μg/mL and 2 μM, respectively, and then 20 μL of PRMT5-MEP50 enzyme complex and 25 μL of S-adenosylmethionine were dispensed onto the plate prepared above. 5 μL of the compound diluted with 10% dimethyl sulfoxide solution was added thereto and reacted at room temperature for 2 hours (final volume=50 μL). The concentration of the compound was diluted 1:5 from 10 μM until the lowest concentration of 0.128 nM, and 8 points were used for the test. After preparing the primary antibody by diluting 1:2000 with blocking buffer, 100 μL was added to the plate and reacted at room temperature for 1 hour. After preparing horseradish peroxidase-conjugated antibody by diluting 1:10,000 with blocking buffer, 100 μL was added to the plate and reacted at room temperature for 1 hour. 100 μL of TMB substrate was added and reacted for 3 minutes at room temperature, and 100 μL of 1 N sulfuric acid was then added to terminate the reaction. Then, the absorbance at 450 nm was measured to calculate the IC50 value of the compound. (+++: 1 to 100 nM, ++: greater than 100 to 1,000 nM, +: greater than 1,000 to 10,000 nM)
`CC1CN(Cc2ccc3c(c2)OCCN(C[C@H](O)CN2CCc4ccccc4C2)C3=O)CCO1` (stereo partly drawn) [Example 30, 4-[(2R)-3-(3,4-dihydro-1H-isoquinolin-2-yl)-2-hydroxy-propyl]-8-[(2-methylmorpholin-4-yl)methyl]-2,3-dihydro-1,4-benzoxazepin-5-one]: the IC50 was 1 to 100 nM. As for `O=C1c2ccc(CN3CCC(F)(F)CC3)cc2OCCN1C[C@H](O)CN1CCc2ccccc2C1` [Example 31, 8-[(4,4-difluoro-1-piperidyl)methyl]-4-[(2R)-3-(3,4-dihydro-1H-isoquinolin-2-yl)-2-hydroxy-propyl]-2,3-dihydro-1,4-benzoxazepin-5-one], the figure is 1 to 100 nM.

As for `O=C1c2ccc(CN3CCC(F)CC3)cc2OCCN1C[C@H](O)CN1CCc2ccccc2C1` [Example 32, 4-[(2R)-3-(3,4-dihydro-1H-isoquinolin-2-yl)-2-hydroxy-propyl]-8-[(4-fluoro-1-piperidyl)methyl]-2,3-dihydro-1,4-benzoxazepin-5-one], the IC50 is 1 to 100 nM.

For `CC1CC(C)CN(Cc2ccc3c(c2)OCCN(C[C@H](O)CN2CCc4ccccc4C2)C3=O)C1` (stereo partly drawn) [Example 33, 4-[(2R)-3-(3,4-dihydro-1H-isoquinolin-2-yl)-2-hydroxy-propyl]-8-[(3,5-dimethyl-1-piperidyl)methyl]-2,3-dihydro-1,4-benzoxazepin-5-one], the IC50 was in the range of 100 to 1000 nM.

Compound `O=C1c2ccc(CN3CC4CCCC4C3)cc2OCCN1C[C@H](O)CN1CCc2ccccc2C1` (stereo partly drawn) [Example 34, 8-(3,3a,4,5,6,6a-hexahydro-1H-cyclopenta[c]pyrrol-2-ylmethyl)-4-[(2R)-3-(3,4-dihydro-1H-isoquinolin-2-yl)-2-hydroxy-propyl]-2,3-dihydro-1,4-benzoxazepin-5-one] had an IC50 of 1 to 100 nM. As for `O=C1c2ccc(CN3CCC(O)C3)cc2OCCN1C[C@H](O)CN1CCc2ccccc2C1` (stereo partly drawn) [Example 35, 4-[(2R)-3-(3,4-dihydro-1H-isoquinolin-2-yl)-2-hydroxy-propyl]-8-[(3-hydroxypyrrolidin-1-yl)methyl]-2,3-dihydro-1,4-benzoxazepin-5-one], the figure is 100 to 1000 nM. Next, `C[C@@H]1CCCN1Cc1ccc2c(c1)OCCN(C[C@H](O)CN1CCc3ccccc3C1)C2=O` [Example 36, 4-[(2R)-3-(3,4-dihydro-1H-isoquinolin-2-yl)-2-hydroxy-propyl]-8-[[(2R)-2-methylpyrrolidin-1-yl]methyl]-2,3-dihydro-1,4-benzoxazepin-5-one]: 100 to 1000 nM; `O=C1c2ccc(CN3CCCC(CO)C3)cc2OCCN1C[C@H](O)CN1CCc2ccccc2C1` (stereo partly drawn) [Example 37, 4-[(2R)-3-(3,4-dihydro-1H-isoquinolin-2-yl)-2-hydroxy-propyl]-8-[[3-(hydroxymethyl)-1-piperidyl]methyl]-2,3-dihydro-1,4-benzoxazepin-5-one]: 1000 to 10000 nM; `COC1CCN(Cc2ccc3c(c2)OCCN(C[C@H](O)CN2CCc4ccccc4C2)C3=O)CC1` [Example 38, 4-[(2R)-3-(3,4-dihydro-1H-isoquinolin-2-yl)-2-hydroxy-propyl]-8-[(4-methoxy-1-piperidyl)methyl]-2,3-dihydro-1,4-benzoxazepin-5-one]: 100 to 1000 nM. With `O=C1c2ccc(CN3CCCOCC3)cc2OCCN1C[C@H](O)CN1CCc2ccccc2C1` [Example 39, 4-[(2R)-3-(3,4-dihydro-1H-isoquinolin-2-yl)-2-hydroxy-propyl]-8-(1,4-oxazepan-4-ylmethyl)-2,3-dihydro-1,4-benzoxazepin-5-one], the IC50 lay in the range of 100 to 1000 nM.

With `CC1(O)CCN(Cc2ccc3c(c2)OCCN(C[C@H](O)CN2CCc4ccccc4C2)C3=O)C1` (stereo partly drawn) [Example 40, 4-[(2R)-3-(3,4-dihydro-1H-isoquinolin-2-yl)-2-hydroxy-propyl]-8-[(3-hydroxy-3-methyl-pyrrolidin-1-yl)methyl]-2,3-dihydro-1,4-benzoxazepin-5-one], the IC50 fell in the range of 1 to 100 nM.

`O=C1c2ccc(CN3CCCCC3CO)cc2OCCN1C[C@H](O)CN1CCc2ccccc2C1` (stereo partly drawn) [Example 41, 4-[(2R)-3-(3,4-dihydro-1H-isoquinolin-2-yl)-2-hydroxy-propyl]-8-[[2-(hydroxymethyl)-1-piperidyl]methyl]-2,3-dihydro-1,4-benzoxazepin-5-one] had an IC50 of 100 to 1000 nM. As for `O=C1c2ccc(CN3CCCC(F)(F)C3)cc2OCCN1C[C@H](O)CN1CCc2ccccc2C1` [Example 42, 8-[(3,3-difluoro-1-piperidyl)methyl]-4-[(2R)-3-(3,4-dihydro-1H-isoquinolin-2-yl)-2-hydroxy-propyl]-2,3-dihydro-1,4-benzoxazepin-5-one], the figure is 100 to 1000 nM. As for `O=C1c2ccc(CN3CCCC(F)C3)cc2OCCN1C[C@H](O)CN1CCc2ccccc2C1` (stereo partly drawn) [Example 43, 4-[(2R)-3-(3,4-dihydro-1H-isoquinolin-2-yl)-2-hydroxy-propyl]-8-[(3-fluoro-1-piperidyl)methyl]-2,3-dihydro-1,4-benzoxazepin-5-one], the figure is 1 to 100 nM. Next, `O=C1c2ccc(CN3CCCC(O)C3)cc2OCCN1C[C@H](O)CN1CCc2ccccc2C1` (stereo partly drawn) [Example 44, 4-[(2R)-3-(3,4-dihydro-1H-isoquinolin-2-yl)-2-hydroxy-propyl]-8-[(3-hydroxy-1-piperidyl)methyl]-2,3-dihydro-1,4-benzoxazepin-5-one]: 1 to 100 nM; `O=C1c2ccc(CN3CCC(O)CC3)cc2OCCN1C[C@H](O)CN1CCc2ccccc2C1` [Example 45, 4-[(2R)-3-(3,4-dihydro-1H-isoquinolin-2-yl)-2-hydroxy-propyl]-8-[(4-hydroxy-1-piperidyl)methyl]-2,3-dihydro-1,4-benzoxazepin-5-one]: 1 to 100 nM; `O=C1c2ccc(CN3CCC[C@H]3CO)cc2OCCN1C[C@H](O)CN1CCc2ccccc2C1` [Example 46, 4-[(2R)-3-(3,4-dihydro-1H-isoquinolin-2-yl)-2-hydroxy-propyl]-8-[[(2S)-2-(hydroxymethyl)pyrrolidin-1-yl]methyl]-2,3-dihydro-1,4-benzoxazepin-5-one]: 100 to 1000 nM. The compound `O=C1c2ccc(CN3CCC[C@@H]3CO)cc2OCCN1C[C@H](O)CN1CCc2ccccc2C1` [Example 47, 4-[(2R)-3-(3,4-dihydro-1H-isoquinolin-2-yl)-2-hydroxy-propyl]-8-[[(2R)-2-(hydroxymethyl)pyrrolidin-1-yl]methyl]-2,3-dihydro-1,4-benzoxazepin-5-one] showed a half-inhibitory concentration (IC50) of 100 to 1000 nM. `CCC1CCCN1Cc1ccc2c(c1)OCCN(C[C@H](O)CN1CCc3ccccc3C1)C2=O` (stereo partly drawn) [Example 48, 4-[(2R)-3-(3,4-dihydro-1H-isoquinolin-2-yl)-2-hydroxy-propyl]-8-[(2-ethylpyrrolidin-1-yl)methyl]-2,3-dihydro-1,4-benzoxazepin-5-one] registered an IC50 of 100 to 1000 nM. Next, `COC[C@@H]1CCCN1Cc1ccc2c(c1)OCCN(C[C@H](O)CN1CCc3ccccc3C1)C2=O` [Example 49, 4-[(2R)-3-(3,4-dihydro-1H-isoquinolin-2-yl)-2-hydroxy-propyl]-8-[[(2S)-2-(methoxymethyl)pyrrolidin-1-yl]methyl]-2,3-dihydro-1,4-benzoxazepin-5-one]: 100 to 1000 nM; `COC[C@H]1CCCN1Cc1ccc2c(c1)OCCN(C[C@H](O)CN1CCc3ccccc3C1)C2=O` [Example 50, 4-[(2R)-3-(3,4-dihydro-1H-isoquinolin-2-yl)-2-hydroxy-propyl]-8-[[(2R)-2-(methoxymethyl)pyrrolidin-1-yl]methyl]-2,3-dihydro-1,4-benzoxazepin-5-one]: 1 to 100 nM; `O=C1c2ccc(CN3CCC(F)C3)cc2OCCN1C[C@H](O)CN1CCc2ccccc2C1` (stereo partly drawn) [Example 51, 4-[(2R)-3-(3,4-dihydro-1H-isoquinolin-2-yl)-2-hydroxy-propyl]-8-[(3-fluoropyrrolidin-1-yl)methyl]-2,3-dihydro-1,4-benzoxazepin-5-one]: 100 to 1000 nM. As for `O=C1c2ccc(CN3CCC(F)(F)C3)cc2OCCN1C[C@H](O)CN1CCc2ccccc2C1` [Example 52, 8-[(3,3-difluoropyrrolidin-1-yl)methyl]-4-[(2R)-3-(3,4-dihydro-1H-isoquinolin-2-yl)-2-hydroxy-propyl]-2,3-dihydro-1,4-benzoxazepin-5-one], the figure is 100 to 1000 nM; as for `CC(=O)N1CCN(Cc2ccc3c(c2)OCCN(C[C@H](O)CN2CCc4ccccc4C2)C3=O)CC1` [Example 53, 8-[(4-acetylpiperazin-1-yl)methyl]-4-[(2R)-3-(3,4-dihydro-1H-isoquinolin-2-yl)-2-hydroxy-propyl]-2,3-dihydro-1,4-benzoxazepin-5-one], 100 to 1000 nM.
